{
  "source": "patent US11214586B2",
  "about": "“Rhodamine triplet state complex and preparation and photodynamic therapy (PDT) study thereof” (SOUTHERN UNIVERSITY OF SCIENCE AND TECHNOLOGY, priority 2018, dated 2022)",
  "key": {"[1]": {"test": "Steady-state emission spectra and absolute luminescence quantum yield", "type": "physicochemical", "method": "The UV-vis absorption spectra were taken on Cary 60 UV-vis spectrophotometer. Steady-state emission spectra at room temperature were recorded on an Edinburgh Instruments FLS980 fluorescence spectrometer. Quartz cuvettes (path length=1 cm) were used in all spectrophotometric and fluorometric measurements. NMR spectra were recorded on a Bruker AVANCE 400 (^1H NMR for 400 MHz and ^13C NMR for 100 MHz) Fourier transform NMR spectrometer with chemical shifts reported relative to tetramethylsilane, (CH3)4Si. High-resolution MS spectra were performed on an Orbitrap Fusion Tribrid mass spectrometer. Elemental analyses of the newly synthesized complexes were preformed on a Elementar Vario EL Cube elemental analyzer at Sun Yat-sen University. The nanosecond time-resolved transient-difference absorption spectra were detected by using Edinburgh LP920 instruments (Edinburgh Instruments, U.K.). All solutions for transient absorption studies were degassed on a high-vacuum line in a two-compartment cell consisting of a 10-ml Pyrex bulb and a 1-cm or 4-mm path length quartz cuvette and sealed from the atmosphere by a Bibby Rotaflo HP6 Teflon stopper. The solutions were rigorously degassed with at least four successive freeze-pump-thaw cycles. Emission lifetime measurements were performed using a conventional laser system. The excitation source used was a 355-nm output (third harmonic) of a Spectra-Physics Quanta-Ray Q-switched GCR-150-10 pulsed Nd-YAG laser. Luminescence decay signals were detected by a Hamamatsu R928 PMT and recorded on a Tektronix Model TDS-620A (500 MHz, 2 GS/s) digital oscilloscope and analyzed using a program for exponential fits. Absolute quantum yields were measured by HAMAMATSU-C11347."}, "[2]": {"test": "Singlet oxygen quantum yield", "type": "physicochemical", "from_the_text": "The long-lived triplet excited state of rhodamine is anticipated to interact with molecular oxygen (^3O2) to form singlet oxygen (^1O2), which is useful for PDT applications. The ability of M-Rho to produce ^1O2 has been evaluated spectroscopically by the observation of ^1O2 emission at about 1270 nm (inset of FIG. 2b). Remarkable ^1O2 emission is observed in Ir-Rho, Re-Rho and Pt-Rho but not for Rh-Rho and bpy-Rho. By monitoring the diminution of the characteristic absorption of the ^1O2 scavenger 1,3-diphenylisobenzofuran (DPBF) at 410 nm, ^1O2 generation is also confirmed and the corresponding quantum yields (ϕΔ) for the complexes are determined (Table 1). […] The rate and quantum yield of ^1O2 generation are found to vary with different metal systems.\nSinglet oxygen quantum yield was determined by comparing the ^1O2 emission intensity of Rose Bengal and M-Rho."}, "MCF-7 cells": {"tested_on": "MCF-7 cells", "test": "Mitochondrial membrane potential, flow-cytometry-based JC-1 assay", "type": "cell-based, human", "conditions": "5 uM, 11 W lamp 30 min", "method": "Mitochondrial depolarization was assessed by flow cytometry after incubation with JC-1 Molecular Probes (Thermo Fisher Scientific, USA). Briefly, The MCF-7 cells were seeded in six-well plate, incubated for 24 h in 5% CO2 at 37° C. Next, added to compounds (bpy-Rho and M-Rho) in medium make the final concentrations of 5 uM compounds. After irradiation treatment (11 W lamp 30 min). The cells were resuspended in warm PBS, and incubated with JC-1 (4 μg/ml) for 30 min at 37° C. and 5% CO2. Thereafter the cells were centrifuged, resuspended in 600 μL of PBS, and analyzed immediately on a flow cytometer (Becton Dickinson, San Jose, Calif., USA). Untreated cells were used as negative controls."}, "A549": {"tested_on": "A549", "test": "Selective uptake by flow cytometry", "type": "cell-based, human", "conditions": "A549, 5 μM, 2 h incubation", "method": "(§1) Tumor cells (MCF-7/A 549/HepG2/4T1) and normal cells (MCF-10A/293T/L02/NIH-3T3) (1×10^4 cells) was cultured in six-well plate for 12 h. and then Cells were changed with a medium containing 5 μM complexes (rho-bpy, rho-bpy-Pt-ph, rho-bpy-Rh-ppy, rho-bpy-Re and rho-bpy-Ir-ppy). Cells were washed three times with PBS after 2 h of incubation, Then the cells were harvested, and the fluorescence intensity of complexes were recorded by flow cytometer."}, "MCF-7": {"tested_on": "MCF-7", "test": "Selective uptake by flow cytometry", "type": "cell-based, human", "conditions": "MCF-7, 5 μM, 2 h incubation", "method": "as §1"}, "tumor cells": {"tested_on": "tumor cells", "test": "Selective uptake by flow cytometry, tumor cells versus normal cells", "type": "cell-based", "conditions": "among bpy-Rho and M-Rho", "method": "as §1"}},
  "data": [
    {"smiles": "CCN(CC)c1ccc2c(-c3ccnc(-c4cc(C)ccn4)c3)c3ccc(=[N+](CC)CC)cc-3oc2c1.F[P-](F)(F)(F)(F)F.F[P-](F)(F)(F)(F)F.c1ccc(-c2cccc[c]2[Ir+][c]2ccccc2-c2ccccn2)nc1", "note": "[Ir-Rho]", "values": [
      {"measurement": "λem", "setting": "[1]; Conc. = 1.0 × 10^−6M in MeOH", "value": 629, "unit": "nm"},
      {"measurement": "Φlum", "setting": "[1]; absolute luminescence quantum yield measured by HAMAMATSU-C11347", "value": 0.014},
      {"measurement": "rate and quantum yield of 1O2 generation, ranking", "setting": "[2]; among M-Rho", "value": "highest QY"},
      {"measurement": "ΦΔ (singlet oxygen quantum yield)", "setting": "[2]; relative to rose bengal (ΦΔ = 0.76)", "value": 0.62},
      {"measurement": "ratio of JC-1 aggregates/JC-1 monomers", "setting": "MCF-7 cells", "value": 1.79},
      {"measurement": "contrast index (CI)", "setting": "A549", "value": "higher than 2.5"},
      {"measurement": "contrast index (CI)", "setting": "MCF-7", "value": "higher than 2.5"},
      {"measurement": "uptake efficiency and affinity to tumor cells, ranking", "setting": "tumor cells", "value": "highest uptake efficiency and affinity"}
    ]}
  ]
}
